Experiment [1] relates to p27 protein. Nature of the experiment: Quantification of p27 protein by ELISA (p27 protein-inducing activity, EC50). It is filed as cell-based, human. The note with it: NCI-H460 cells, 48 hours, p27 sandwich ELISA. As to the method:
The p27 protein-inducing activities of the compounds or salts listed in Tables 1-1, 1-2 and 2 below were measured as follows.
Preparation of Cell Lysate:
NCI-H460 human non-small cell lung cancer cells (ATCC HTB-177) were plated in 6-well plates at 2×10^5 cells/well and incubated overnight. Then, the test substance was added to the medium to a final concentration of 10000 nmol/L, 3000 nmol/L, 100 nmol/L, 30 nmol/L, 10 nmol/L, 3 nmol/L, 1 nmol/L, 0.3 nmol/L, 0.1 nmol/L, 0.03 nmol/L or 0.01 nmol/L and the cells were incubated at 37° C. in 5% CO2 for 48 hours. 150 μL of Cell Lysis Buffer (catalog no. 9803, Cell Signaling) which had been diluted to 1-fold concentration (1 mM PMSF was added immediately before use) was added, and the mixture was allowed to stand on ice for 10 minutes. The Cell Lysis Buffer in which cells were lysed was collected together with cells with a scraper and transferred to a new tube. It was centrifuged at 15000 rpm for 10 minutes at 4° C. and the supernatant was then transferred to a new tube.
Quantification by Sandwich ELISA:
Anti-p27 monoclonal antibody (catalog no. 71-9600, Zymed) was diluted to 5 μg/mL in 50 mM carbonate coating buffer (0.4 g/L NaCO3, 0.73 g/L NaHCO3 and 0.04 g/L NaN3 in distilled water), and it was then added at 50 μL/well and allowed to stand overnight at 4° C. to bind the antibody. After washing three times with PBS, 200 μL of blocking solution (0.2% I-Block in PBS) was added to each well. After 1 hour of incubation at room temperature, washing with PBS-T (0.05% Tween 20 in PBS) was performed three times. The sample and recombinant p27 protein standard were serially diluted in Cell Lysis Buffer (catalog no. 9803, Cell Signaling) which had been diluted to 1-fold concentration (1 mM PMSF was added immediately before use), and it was then added at 100 μL/well. After 1 hour of incubation at room temperature, washing with 200 μL of PBS-T was performed three times. HRP-labeled anti-p27 antibody (product no. 610243, BD Transdution Laboratories) was diluted 1:2500 (i.e. to 0.1 μg/mL) in 0.2% I-Block/0.05% PBS-T, and it was then added at 100 μL/well. After 1 hour of incubation at room temperature, washing with 200 μL of PBS-T was performed three times. Chromogenic substrate solution (TMB One Solution, catalog no. G7431, Promega) was added at 100 μL/well and allowed to develop a color reaction at room temperature. After stopping the reaction with 50 μL of 1N H2SO4, the absorbance at 450 nm was measured.
Calculation of EC50 Values:
A standard response curve was generated by plotting the amount of p27 protein against the concentration of the test substance. The basal level of response was defined as 0%, while the plateau level where the induction of p27 protein had been maximized was defined as 100%. Finally, the test substance concentration at which 50% induction was achieved was calculated, and it was defined as EC50.

Experiment [2] has as its system TNF-α. In words: Measurement of TNF-α production inhibitory activity in LPS-stimulated THP-1 cells. The experiment is classed as cell-based. The settings on record: Homo sapiens, overnight, TNF-α in supernatant by ELISA, Table 3. As to the method: TNF-α is an inflammatory cytokine. It plays an important role in the initiation of inflammation, particularly in rheumatism. The TNF-α production inhibitory activities of the compounds or salts listed in Table 3 below were measured as follows.
THP-1 human monocytic leukemia cells (ATCC) were suspended to a cell density of 5×10^5 cells/mL in RPMI 1640 medium supplemented with 5% inactivated fetal bovine serum, and this suspension was aliquoted into a 96-well round-bottomed tissue culture plate at 0.2 mL/well. A solution of the test substance in DMSO was added to the suspension to a final concentration of […] and the mixture was subjected to pretreatment at 37° C. for 60 minutes. After pretreatment, lipopolysaccharide (LPS) from E. coli 055:B5 was added to a final concentration of […] and the mixture was incubated overnight in a 37° C., 5% CO^2 incubator. Then, the culture supernatant was collected from each well, and the concentration of TNF-α in the supernatant was determined with a human TNF-α ELISA kit (catalog no. KHC3011, BIOSOURCE) according to the manufacturer's instructions. The test substance concentration (IC50) at which 50% inhibition was achieved was calculated from the measurement.
In general terms: An ELISA detects its analyte on a solid surface through an enzyme-linked reagent.

The subject of experiment [3] is type II collagen-induced arthritis. The settings on record: mouse, in vivo.
Procedure: DBA/1JN mice (female, 8 weeks old, Charles River) were injected intradermally at the three sites of the base of the tail with 140 μL/mouse of a collagen gel prepared by mixing equal volumes of 0.3% aqueous bovine type II collagen solution (Collagen Technical Workshop) and complete Freund's adjuvant H37Ra (Difco). After 21 days, the mice were injected intradermally at the three sites of the back with 140 μL/mouse of a collagen gel prepared likewise. […] At every administration, the mice were treated at 0.04 mg/kg, 0.2 mg/kg, 1 mg/kg, 5 mg/kg or 25 mg/kg using 0.5% sodium carboxymethylcellulose as a vehicle. The mice treated with vehicle alone (i.e., the mice that were not treated with the test substance) were used as controls.
After the first collagen injection, arthritis score of each mouse was measured with time. The arthritis score was calculated by giving scores for both the toes and backs of all four paws of the mouse on the scale below and adding them together (the maximum possible total is 4 per paw and 16 per mouse).
Score 1: Moderate swelling

Structures are written as SMILES. Structures can show the parent of a compound that is named as a salt.

Turning to `CNS(=O)(=O)Nc1cccc(Cc2c(C)c3cc(Cl)c(OC(=O)N(C)C)cc3oc2=O)c1` [Compound 1j-1-3-2, Dimethylcarbamic acid 3-(3-(N-methylsulfamoyl)aminobenzyl)-6-chloro-4-methyl-2-oxo-2H-1-benzopyran-7-yl ester], in experiment [1] (Table 1-1), the midpoint of the response, the EC50, lay at 54 nM. Besides, it took 1.86 nM to reach half-maximal inhibition in experiment [2] (IC50).
As to `Cc1c(Cc2cccc(NS(N)(=O)=O)c2F)c(=O)oc2cc(OC(=O)N(C)C)c(F)cc12` [Compound 1j-1-5-1, Dimethylcarbamic acid 3-{2-fluoro-3-(aminosulfonyl)aminobenzyl}-6-fluoro-4-methyl-2-oxo-2H-1-benzopyran-7-yl ester], in experiment [1] (Table 1-1), the EC50 (usually the midpoint of the concentration-response curve) was found to be 590 nM. For the same compound, the IC50 (commonly the concentration that gives 50% inhibition) in experiment [2] was determined as 0.93 nM.
With `CNS(=O)(=O)Nc1cc(Cc2c(C)c3ccc(OC(=O)N(C)C)cc3oc2=O)ccn1` [Compound 1j-1-10-2, Dimethylcarbamic acid 4-methyl-3-{2-(methylaminosulfonyl)-aminopyridin-4-ylmethyl}-2-oxo-2H-1-benzopyran-7-yl ester], in experiment [1] (Table 1-2), the EC50 worked out at 370 nM. The same compound registered a half-inhibitory concentration (IC50) in experiment [2] of 10.3 nM.
For `CNS(=O)(=O)Nc1cc(Cc2c(C)c3cc(F)c(OC(=O)N(C)C)cc3oc2=O)ccn1` [Compound 1j-1-11-2, Dimethylcarbamic acid 4-methyl-3-{2-(methylaminosulfonyl)aminopyridin-4-ylmethyl}-6-fluoro-2-oxo-2H-1-benzopyran-7-yl ester], in that order: 330 nM and 5.19 nM.
In turn, `Cc1c(Cc2cccc(NS(N)(=O)=O)c2F)c(=O)oc2cc(Oc3ncccn3)ccc12` [Compound 1j-2-4-1, 3-{2-Fluoro-3-(aminosulfonyl)aminobenzyl}-4-methyl-7-(pyrimidin-2-yloxy)-2-oxo-2H-1-benzopyran] showed a 50% effective concentration (EC50) in experiment [1] (Table 2) of 1840 nM. Besides, in experiment [2], inhibition was half-maximal at 25.9 nM (IC50).
For the compound `CNS(=O)(=O)Nc1cccc(Cc2c(C)c3ccc(Oc4ncccn4)cc3oc2=O)c1F` [Compound 1j-2-4-2, 3-{2-Fluoro-3-(methylaminosulfonyl)aminobenzyl}-4-methyl-7-(pyrimidin-2-yloxy)-2-oxo-2H-1-benzopyran], in experiment [1] (Table 2), the EC50 came to 730 nM. Also, the half-inhibitory concentration (IC50) in experiment [2] was 15.3 nM.
For `CNS(=O)(=O)Nc1cccc(Cc2c(CF)c3ccc(Oc4ncccn4)cc3oc2=O)c1F` [Compound 1j-2-4-2F, 3-{2-Fluoro-3-(methylaminosulfonyl)aminobenzyl}-4-fluoromethyl-7-(pyrimidin-2-yloxy)-2-oxo-2H-1-benzopyran], in that order: 530 nM and 9.14 nM.
With `CNS(=O)(=O)Nc1cccc(Cc2c(C)c3ccc(Oc4ncccn4)cc3oc2=O)c1F` [Compound 1j-2-4-2Na, 3-{2-fluoro-3-(methylaminosulfonyl)aminobenzyl}-4-methyl-7-(pyrimidin-2-yloxy)-2-oxo-2H-1-benzopyran sodium salt], in experiment [3], the “type II collagen-induced arthritis (arthritis score) compared to the control group” value is reported as “suppressed” and the “type II collagen-induced arthritis (arthritis score), dose dependence” value is “dose-dependently suppressed”.
The compound `CNS(=O)(=O)Nc1cccc(Cc2c(C)c3cc(F)c(Oc4ncccn4)cc3oc2=O)c1F` [Compound 1j-2-5-2, 3-{2-Fluoro-3-(methylaminosulfonyl)aminobenzyl}-4-methyl-7-(pyrimidin-2-yloxy)-6-fluoro-2-oxo-2H-1-benzopyran] displayed a half-maximal effective concentration (EC50) in experiment [1] (Table 2) of 417 nM. This compound came in with a concentration for half-maximal inhibition (IC50) in experiment [2] of 14.9 nM.
Turning to `Cc1c(Cc2cccc(NS(N)(=O)=O)c2F)c(=O)oc2cc(Oc3nccs3)ccc12` [Compound 1j-3-4-1, 3-{2-Fluoro-3-(aminosulfonyl)aminobenzyl}-4-methyl-7-(thiazol-2-yloxy)-2-oxo-2H-1-benzopyran], in experiment [1] (Table 1-2), the EC50 amounted to 425 nM. In experiment [2], this compound registered an IC50 of 7.36 nM.
For `CNS(=O)(=O)Nc1cccc(Cc2c(C)c3ccc(Oc4nccs4)cc3oc2=O)c1F` [Compound 1j-3-4-2, 3-{2-Fluoro-3-(methylaminosulfonyl)aminobenzyl}-4-methyl-7-(thiazol-2-yloxy)-2-oxo-2H-1-benzopyran], in that order: 267 nM and 1.84 nM.
In experiment [1] (Table 1-2), `CNS(=O)(=O)Nc1nccc(Cc2c(C)c3cc(C)c(Oc4nccs4)cc3oc2=O)c1F` [Compound 1j-3-19-2, 3-{2-(Methylaminosulfonyl)amino-3-fluoropyridin-4-ylmethyl}-4-methyl-6-methyl-7-(thiazol-2-yloxy)-2-oxo-2H-1-benzopyran] gave a concentration for a half-maximal effect (EC50) of 19 nM.
`CNS(=O)(=O)Nc1cc(Cc2c(C)c3cc(C)c(Oc4nccs4)cc3oc2=O)ccn1` [Compound 1j-3-20-2, 3-{2-(Methylaminosulfonyl)aminopyridin-4-ylmethyl}-4-methyl-6-methyl-7-(thiazol-2-yloxy)-2-oxo-2H-1-benzopyran] had an EC50 in experiment [1] (Table 1-2) of 100 nM.
In experiment [1] (Table 1-2), `CNS(=O)(=O)Nc1nccc(Cc2c(C)c3cc(C)c(Oc4nccs4)cc3oc2=O)c1Cl` [Compound 1j-3-44-2, 3-{2-(Methylaminosulfonyl)amino-3-chloropyridin-4-ylmethyl}-4-methyl-6-methyl-7-(thiazol-2-yloxy)-2-oxo-2H-1-benzopyran] registered a half-maximal effective concentration (EC50) of 202 nM.
The compound `CNC(=O)CS(=O)(=O)Nc1cccc(Cc2c(C)c3cc(Cl)c(OC(=O)N(C)C)cc3oc2=O)c1` [Compound 1o-1-3-2, Dimethylcarbamic acid 3-(3-methylcarbamoylmethanesulfonylamino-benzyl)-6-chloro-4-methyl-2-oxo-2H-1-benzopyran-7-yl ester] showed a concentration giving a half-maximal response (EC50) in experiment [1] (Table 1-1) of 290 nM.
Same read-out and setting: then `Cc1c(Cc2cccc(NS(=O)(=O)CC(=O)N(C)C)c2)c(=O)oc2cc(OC(=O)N(C)C)c(Cl)cc12` [Compound 1o-1-3-3, Dimethylcarbamic acid 3-(3-dimethylcarbamoylmethanesulfonylamino-benzyl)-6-chloro-4-methyl-2-oxo-2H-1-benzopyran-7-yl ester], with 190 nM.
Consider `CNC(=O)CS(=O)(=O)Nc1cccc(Cc2c(C)c3ccc(Oc4nccs4)cc3oc2=O)c1F` [Compound 1o-3-4-2, 2-{2-Fluoro-3-[4-methyl-2-oxo-7-(thiazol-2-yloxy)-2H-1-benzopyran-3-ylmethyl]phenylsulfamoyl}-N-methyl-acetamide], for which the EC50 in experiment [1] (Table 2) amounted to 2660 nM.

The values above are taken from US8569378B2, “p27 protein inducer” (Chugai Seiyaku Kabushiki Kaisha, priority 2007, dated 2013).
